Data on 1 compound can be found in patent publication US9951039B2, “Pyrimidines for treatment of bacterial infections” (The Hong Kong Polytechnic University, priority 2016, dated 2018).

Converted amounts (≈) assume the structure as drawn.

As a reminder, the MIC is the smallest concentration in the dilution series that meets the test's criterion for growth inhibition. Lower therefore signals a more susceptible organism.

The test system of series [1] is G. mellonella larvae. In words: Toxicity in G. mellonella larvae. To be noted: 0, 50 and 100 mg/Kg in 50% PEG in saline, no MRSA inoculation, 48-hours period. It is filed as in vivo, Galleria mellonella. The procedure: Procedure: Compound 14av_amine16 was tested in a Galleria mellonella model, which are an easy and inexpensive in vivo model with no ethical constraints for investigating antibacterial activity of a compound.^22 The G. mellonella model of S. aureus infection was used as previously described.^24 Briefly, 1 mL aliquots of overnight cultures of S. aureus 43300 were pelleted by centrifugation and washed with sterile PBS before being resuspended in 100 μL of PBS. G. mellonella larvae (N=10) that weighed 200-300 mg were then inoculated with 10 μL of S. aureus (2.5×10^6 CFU) into the last left proleg. Larvae were then treated with compounds at 1 h before bacterial inoculation. Treatments were performed in the same manner as infection, except that compounds were injected into the next left proleg moving toward the head of the larvae. […] Data was analyzed for statistical significance using a log rank and χ square test with 1 degree of freedom. Various concentrations of compound 14av_amine16 dissolved in 50% PEG in saline (0 mg/Kg, 50 mg/Kg and 100 mg/Kg) were injected into the hemocoel of last-instar G. mellonella larvae and survival was scored over time.
To examine the feasibility of using G. mellonella for compound 14av_amine16 toxicity study, the ability of compound 14av_amine16 to kill G. mellonella larvae was examined.

Series [2] deals with B. subtilis 168. Briefly: MIC against B. subtilis 168. It is filed as cell-based. To be noted: Bacillus subtilis.
For series [3], the system named is S. aureus ATCC 43300 (methicillin resistant). Briefly: MIC against clinically isolated strain 5. It is filed as cell-based. To be noted: Staphylococcus aureus, ATCC43300. As to the method: Procedure of Antimicrobial susceptibility test: The MIC value of compounds was measured in the antimicrobial susceptibility test using the broth microdilution procedure in accordance with the CLSI guidelines.^21 Cation-adjusted Mueller Hinton broth (CA-MHB) was used for all the S. aureus strains in the assay. Cells in exponential phase of growth were diluted to approximately 5×10^5 cfu/mL. Stock solutions of each compound were freshly dissolved in dimethyl sulfoxide (DMSO). Then, serial dilutions of each compound in CA-MHB medium were added into 96-well microplate. The final percentage of DMSO in the assay was 1%. Control experiments were performed with 1% DMSO instead of the compound solution. After being incubated at 37° C. for 18 h, OD600 value of cells was measured on a microplate reader and the percentage of bacterial cell inhibition with respect to controls was calculated. The MIC value was defined as the lowest compound concentration at which the growth of bacteria was inhibited by ≥90%. Three independent assays were performed for each compound.
Results: Three compounds, namely 14av_amine16, 14dv_amine16 and 14dv_amine06, were selected to be tested against nine in-house clinically isolated bacterial strains including S. aureus ATCC29247, which is an ampicillin resistant strain, S. aureus ATCC BAA-41, ATCC BAA-1717, ATCC BAA-1720, ATCC 43300 which are methicillin resistant strains and four USA300 strains, (#417, #757, #1799 and #2690), which are the predominant strain type of community-associated MRSA strains in the United States.

In the case of `CCC(CC)c1cc(CCN2CCCN(Cc3ccc(C(F)(F)F)cc3)CC2)nc(-c2ccncc2)n1` [Compound 14av_amine16, 1-(2-(6-(pentan-3-yl)-2-(pyridin-4-yl)pyrimidin-4-yl)ethyl)-4-(4-(trifluoromethyl)benzyl)-1,4-diazepane], the “ability to kill G. mellonella larvae (toxicity)” value in series [1] is on record as “did not kill G. mellonella larvae”. The MIC in series [2] and in series [3] was 12 µM (≈ 6.14 µg/mL) in each case.
